According to patent US5801162A, “Dermatan sulfate compositions and antithrombotic compositions containing same” (Seikagaku Kogyo Kabushiki Kaisha (Seikagaku Corporation), priority 1993, dated 1998):

Key:
[1] = test system: activation of plasminogen with single-chain t-PA (sc-tPA); details: s-2251
Experimental: (§1) Fifty microliters each of various concentration of DS (BIDS, CCDS) or chondroitin sulfate (control group), 25 μL of 1.6 μM plasminogen and 25 μL of 20 nM of single or two-chain t-PA, and 100 μL of 0.6 mM a synthetic substrate S-2251 (H-D-Val-L-Leu-L-Lys-p-nitroanilide·2HCl) were mixed and the absorbancy at 405 nm was determined every 2 minutes with an automatic microtiter plate reader. The reaction was carried out at 37° C. in a buffer composed of 60 mM TriS-HCl with Tween^RTM 80.
(§2) The initial rate of activation of plasminogen was calculated as follows; the slope of plots of, .LAMBDA.405, an absorbancy at 405 nm at time t to the square of time (Δ.LAMBDA.405 /Δt^2) was divided by 40,000 (Chibber, B. A. K., et al., Biochemistry, 1985, pp. 3429-3434). The stimulation rate was calculated from ratios to DS or chondroitin sulfate free conditions which was made the initial rate 1 (one).

[2] = test system: activation of plasminogen with two-chain t-PA (tc-tPA); details: s-2251
Experimental: as §1, §2

stimulation rate of activation of plasminogen (ratio to DS or chondroitin sulfate free conditions) [1]: ≤ 2.5 fold
stimulation rate of activation of plasminogen (ratio to DS or chondroitin sulfate free conditions) [2]: ≤ 1.5 fold
Substance: chondroitin sulfate
